Experimental data: US5629007A, “Method of preventing prostatic cancer development” (priority 1995, dated 1997)

Biological target: T1, Human Type I Steroid 5α-Reductase (Homo sapiens, UniProt P18405)
T1 construct: Scalp punch biopsies from graft recipient sites were obtained; from tissue; host or cells: human scalp punch biopsies (hair transplant graft recipient sites), homogenate, resuspended 100,000×g pellet
T1 sequence (P18405 1-259): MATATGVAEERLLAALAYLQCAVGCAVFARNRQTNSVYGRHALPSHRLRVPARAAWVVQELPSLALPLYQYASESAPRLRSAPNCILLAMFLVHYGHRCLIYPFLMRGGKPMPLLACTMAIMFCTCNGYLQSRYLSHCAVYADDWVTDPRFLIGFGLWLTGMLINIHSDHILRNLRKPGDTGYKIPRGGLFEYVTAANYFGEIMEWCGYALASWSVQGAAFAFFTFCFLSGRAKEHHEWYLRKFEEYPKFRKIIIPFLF
Assay: Human 5α-Reductase Homogenate Assay (Type I, human scalp): conversion of [3H]-testosterone to 5α-reduced metabolites
Format: biochemical
Details: 0.3 μM test compound, compared to control reaction mixtures; 50 nM [3H]-testosterone, pH 7.5, 25°, 180 min
Text: Methodology of Human Type I Steroid 5α-Reductase Assays
Approximately 60-75 punches from one surgical procedure were used to generate an enzyme preparation. The subcutaneous tissue was cut away and discarded. The skin was frozen with liquid nitrogen and pulverized to powder. […] The homogenization procedure consisted of four 15 second pulses. Connective tissue was cleared from the probe with forceps between pulses. […] The pellet was resuspended by homogenization with a Dounce homogenizer using the same buffer solution. An aliquot was taken for protein determination by the Lowry method, Lowry, et al., Protein Measurement with the Folin Phenol Reagent, J. Biol. Chem., 193, 265-75 (1951). Aliquots of the enzyme preparation were stored at -80° until use.
The reaction was initiated by the addition of 0.5 mg of Type I 5α-reductase. The reaction mixture was incubated at 25° for 180 min, and terminated by the addition of 1 mL ice-cold stopping solution. […] The samples were prepared for high performance liquid chromatography by solid phase extraction. […] The reaction mixtures were then applied to the columns. The columns were subsequently washed with 5 mL of acetone:water (1:4), followed by 0.3 mL of methanol. The samples were then eluted with 3 mL of methanol and collected in 20 mL scintillation vials. […] The column temperature was maintained at 35° and the flow rate was 1.5 mL/min.

“(+)-(4aR)-(10bR)-4-methyl-8-benzyloxycarbonyl-10b-methyl-1,2,3,4,4a,5,6,10b-octahydrobenzo[f]quinolin-3-one [Example 144]” was tested, and the “percent inhibition of Type I 5AR” value was 90%.
With `CN1C(=O)CC[C@]2(C)c3ccc(Sc4nc5c(ccc6ccccc65)s4)cc3CC[C@@H]12` [Example 163, (+)-(4aR)-(10bR)-4-methyl-8-(2-naphtho<1,2-d>-thiazolylthio)-10b-methyl-1,2,3,4,4a,5,6,10b-octahydrobenzo[f]-quinolin-3-one] the “percent inhibition of Type I 5AR” value was 80%.
In the case of `CN1C(=O)CC[C@]2(C)c3ccc(C=Cc4ccccc4)cc3CC[C@@H]12` [Example 285, (4aR)-(10bR)-4,10b-dimethyl-8-(2-phenylethenyl)-1,2,3,4,4a,5,6,10b-octahydrobenzo[f]quinolin-3-one], the “percent inhibition of Type I 5AR” value is reported as 93%.
`C[C@]12CCC(=O)N[C@@H]1CCc1cc(-c3cnc4ccccc4c3)ccc12` [Example 196, (+)-(4aR)-(10bR)-8-(3-quinolinyl)-10b-methyl-1,2,3,4,4a,5,6,10b-octahydrobenzo[f]quinolin-3-one] was tested, and the “percent inhibition of Type I 5AR” value was 11%.
`CN1C(=O)CC[C@]2(C)c3ccc(-c4ccc(-c5ccc(NC(=O)C(C)(C)C)s5)cc4)cc3CC[C@@H]12` [Example 222, (+)-(4aR)-(10bR)-4-methyl-8-(4-[(2-t-butylcarbonylamino]-5-thienyl]phenyl)-10b-methyl-1,2,3,4,4a,5,6,10b-octahydrobenzo[f]quinolin-3-one] was tested, and the “percent inhibition of Type I 5AR” value was 86%.
